From ChEMBL document CHEMBL1201862, “PubChem BioAssay data set” (2004)
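Growth conditions: 96-well plates. Treatment: test compound, 48 hours, 5 concentrations. Analysis: linear interpolation between bracketing concentrations; unreached endpoints set to highest concentration. GI50 = concentration required for 50% inhibition of growth.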 Active and inactive are the calls of the source. Rule as the data show it: active = GI50 up to about 1.1 µM and inactive = higher.

Experiments:
Test in all cases: inhibition of tumour cell growth, NCI panel, 48 h
[1] = system: A498
[2] = system: A549
[3] = system: ACHN
[4] = system: CAKI-1
[5] = system: CCRF-CEM
[6] = system: COLO 205
[7] = system: DU-145
[8] = system: EKVX
[9] = system: HCC 2998
[10] = system: HCT-15
[11] = system: HL-60
[12] = system: HOP-62
[13] = system: HOP-92
[14] = system: HT-29
[15] = system: IGROV-1
[16] = system: K562
[17] = system: KM12
[18] = system: LOX IMVI
[19] = system: M14
[20] = system: MCF7
[21] = system: MDA-MB-231
[22] = system: MDA-MB-435
[23] = system: MDA-N
[24] = system: MOLT-4
[25] = system: Malme-3M
[26] = system: NCI-H226
[27] = system: NCI-H23
[28] = system: NCI-H460
[29] = system: NCI/ADR-RES
[30] = system: OVCAR-3
[31] = system: OVCAR-4
[32] = system: OVCAR-5
[33] = system: OVCAR-8
[34] = system: PC-3
[35] = system: RPMI-8226
[36] = system: RXF 393
[37] = system: SF-295
[38] = system: SK-MEL-28
[39] = system: SK-MEL-2
[40] = system: SK-MEL-5
[41] = system: SK-OV-3
[42] = system: SNB-19
[43] = system: SNB-75
[44] = system: SR
[45] = system: SW-620
[46] = system: T47D
[47] = system: TK-10
[48] = system: U-251
[49] = system: UACC-257
[50] = system: UACC-62
[51] = system: UO-31
[52] = system: 786-0
[53] = system: HCT-116
[54] = system: Hs-578T
[55] = system: NCI-H522
[56] = system: SF-268
[57] = system: SF-539
[58] = system: SN12C

Structure (SMILES): CCOC(=O)c1csc(NC(=O)CN2CCN(c3ccccc3)CC2)n1
- GI50 [1]: > 100 µM (inactive)
- GI50 [2]: > 100 µM (inactive)
- GI50 [3]: > 100 µM (inactive)
- GI50 [4]: > 100 µM (inactive)
- GI50 [5]: > 100 µM (inactive)
- GI50 [6]: > 100 µM (inactive)
- GI50 [7]: > 100 µM (inactive)
- GI50 [8]: > 100 µM (inactive)
- GI50 [9]: > 100 µM (inactive)
- GI50 [10]: > 100 µM
- GI50 [11]: 70.6 µM (inactive)
- GI50 [12]: > 100 µM (inactive)
- GI50 [13]: > 100 µM (inactive)
- GI50 [14]: > 100 µM (inactive)
- GI50 [15]: 85.9 µM (inactive)
- GI50 [16]: > 100 µM (inactive)
- GI50 [17]: > 100 µM (inactive)
- GI50 [18]: > 100 µM (inactive)
- GI50 [19]: > 100 µM (inactive)
- GI50 [20]: > 100 µM (inactive)
- GI50 [21]: > 100 µM (inactive)
- GI50 [22]: > 100 µM (inactive)
- GI50 [23]: > 100 µM (inactive)
- GI50 [24]: 45.6 µM (inactive)
- GI50 [25]: > 100 µM (inactive)
- GI50 [26]: > 100 µM (inactive)
- GI50 [27]: > 100 µM (inactive)
- GI50 [28]: > 100 µM (inactive)
- GI50 [29]: > 100 µM (inactive)
- GI50 [30]: > 100 µM (inactive)
- GI50 [31]: 99.1 µM (inactive)
- GI50 [32]: > 100 µM (inactive)
- GI50 [33]: > 100 µM (inactive)
- GI50 [34]: > 100 µM (inactive)
- GI50 [35]: > 100 µM (inactive)
- GI50 [36]: > 100 µM (inactive)
- GI50 [37]: > 100 µM (inactive)
- GI50 [38]: > 100 µM (inactive)
- GI50 [39]: > 100 µM (inactive)
- GI50 [40]: 34.8 µM (inactive)
- GI50 [41]: > 100 µM (inactive)
- GI50 [42]: > 100 µM (inactive)
- GI50 [43]: 38.4 µM (inactive)
- GI50 [44]: > 100 µM (inactive)
- GI50 [45]: > 100 µM (inactive)
- GI50 [46]: 94 µM (inactive)
- GI50 [47]: > 100 µM (inactive)
- GI50 [48]: > 100 µM (inactive)
- GI50 [49]: > 100 µM (inactive)
- GI50 [50]: > 100 µM (inactive)
- GI50 [51]: > 100 µM (inactive)

Structure (SMILES): Nn1c(S)nnc1C12CC3CC(CC(C3)C1)C2
- GI50 [52]: > 100 µM (inactive)
- GI50 [1]: > 100 µM (inactive)
- GI50 [2]: > 100 µM (inactive)
- GI50 [3]: > 100 µM (inactive)
- GI50 [4]: > 100 µM (inactive)
- GI50 [5]: > 100 µM (inactive)
- GI50 [6]: > 100 µM (inactive)
- GI50 [7]: > 100 µM (inactive)
- GI50 [8]: > 100 µM (inactive)
- GI50 [9]: > 100 µM (inactive)
- GI50 [53]: > 100 µM (inactive)
- GI50 [10]: > 100 µM
- GI50 [11]: > 100 µM (inactive)
- GI50 [12]: > 100 µM (inactive)
- GI50 [13]: > 100 µM (inactive)
- GI50 [14]: > 100 µM (inactive)
- GI50 [54]: > 100 µM (inactive)
- GI50 [15]: > 100 µM (inactive)
- GI50 [16]: > 100 µM (inactive)
- GI50 [17]: > 100 µM (inactive)
- GI50 [18]: > 100 µM (inactive)
- GI50 [19]: > 100 µM (inactive)
- GI50 [21]: > 100 µM (inactive)
- GI50 [22]: > 100 µM (inactive)
- GI50 [23]: > 100 µM (inactive)
- GI50 [24]: > 100 µM (inactive)
- GI50 [25]: > 100 µM (inactive)
- GI50 [26]: > 100 µM (inactive)
- GI50 [27]: > 100 µM (inactive)
- GI50 [28]: > 100 µM (inactive)
- GI50 [55]: > 100 µM (inactive)
- GI50 [29]: > 100 µM (inactive)
- GI50 [30]: > 100 µM (inactive)
- GI50 [31]: > 100 µM (inactive)
- GI50 [32]: > 100 µM (inactive)
- GI50 [34]: > 100 µM (inactive)
- GI50 [35]: > 100 µM (inactive)
- GI50 [36]: > 100 µM (inactive)
- GI50 [56]: > 100 µM (inactive)
- GI50 [37]: > 100 µM (inactive)
- GI50 [57]: > 100 µM (inactive)
- GI50 [38]: > 100 µM (inactive)
- GI50 [39]: > 100 µM (inactive)
- GI50 [40]: > 100 µM (inactive)
- GI50 [41]: > 100 µM (inactive)
- GI50 [58]: > 100 µM (inactive)
- GI50 [42]: > 100 µM (inactive)
- GI50 [43]: > 100 µM (inactive)
- GI50 [44]: > 100 µM (inactive)
- GI50 [45]: > 100 µM (inactive)
- GI50 [46]: > 100 µM (inactive)
- GI50 [47]: > 100 µM (inactive)
- GI50 [48]: > 100 µM (inactive)
- GI50 [50]: > 100 µM (inactive)
- GI50 [51]: > 100 µM (inactive)

Structure (SMILES): COc1ccc(Nc2nc3cc(N)cc(N)c3nc2-c2ccccc2)cc1
- GI50 [14]: 20.3 µM (inactive)
- GI50 [49]: 14.4 µM (inactive)

Structure (SMILES): NS(=O)(=O)c1cc2c(cc1Cl)NCNS2(=O)=O [HYDROCHLOROTHIAZIDE]
- GI50 [52]: > 100 µM (inactive)
- GI50 [2]: > 100 µM (inactive)
- GI50 [3]: > 100 µM (inactive)
- GI50 [4]: > 100 µM (inactive)
- GI50 [5]: > 100 µM (inactive)
- GI50 [6]: > 100 µM (inactive)
- GI50 [7]: > 100 µM (inactive)
- GI50 [8]: > 100 µM (inactive)
- GI50 [9]: > 100 µM (inactive)
- GI50 [53]: > 100 µM (inactive)
- GI50 [10]: > 100 µM
- GI50 [11]: > 100 µM (inactive)
- GI50 [12]: > 100 µM (inactive)
- GI50 [13]: > 100 µM (inactive)
- GI50 [14]: > 100 µM (inactive)
- GI50 [54]: > 100 µM (inactive)
- GI50 [15]: > 100 µM (inactive)
- GI50 [16]: > 100 µM (inactive)
- GI50 [17]: > 100 µM (inactive)
- GI50 [18]: > 100 µM (inactive)
- GI50 [19]: > 100 µM (inactive)
- GI50 [20]: > 100 µM (inactive)
- GI50 [21]: > 100 µM (inactive)
- GI50 [22]: > 100 µM (inactive)
- GI50 [23]: > 100 µM (inactive)
- GI50 [24]: > 100 µM (inactive)
- GI50 [25]: > 100 µM (inactive)
- GI50 [26]: > 100 µM (inactive)
- GI50 [27]: > 100 µM (inactive)
- GI50 [28]: > 100 µM (inactive)
- GI50 [55]: > 100 µM (inactive)
- GI50 [29]: > 100 µM (inactive)
- GI50 [30]: > 100 µM (inactive)
- GI50 [31]: > 100 µM (inactive)
- GI50 [32]: > 100 µM (inactive)
- GI50 [33]: > 100 µM (inactive)
- GI50 [34]: > 100 µM (inactive)
- GI50 [35]: > 100 µM (inactive)
- GI50 [56]: > 100 µM (inactive)
- GI50 [37]: > 100 µM (inactive)
- GI50 [57]: > 100 µM (inactive)
- GI50 [38]: > 100 µM (inactive)
- GI50 [39]: > 100 µM (inactive)
- GI50 [40]: > 100 µM (inactive)
- GI50 [58]: > 100 µM (inactive)
- GI50 [42]: > 100 µM (inactive)
- GI50 [43]: > 100 µM (inactive)
- GI50 [44]: > 100 µM (inactive)
- GI50 [45]: > 100 µM (inactive)
- GI50 [46]: > 100 µM (inactive)
- GI50 [47]: > 100 µM (inactive)
- GI50 [48]: > 100 µM (inactive)
- GI50 [49]: > 100 µM (inactive)
- GI50 [51]: > 100 µM (inactive)
